Reference: patent US20250059179A1, “Heterocyclic Compounds and Methods of Use” (AMGEN INC., priority 2021, published 2025)

Tests used:
[1] = molecular target: His-tagged KRAS G12D protein (Homo sapiens, UniProt P01116, G12D); assay: KRAS G12D TR-FRET Assay; format: binding; settings: biotinylated KRPep-2d substrate, 10 μM GDP;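 also: europium anti-His antibody paired with streptavidin-d2 as FRET partners, initial 30 min incubation, then peptide 1 h and detection reagents 1 h, all at room temperature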
[2] = test system: Phosphorylation of ERK1/2 in A-427 cells; assay: Phospho-ERK1/2 MSD Assay; format: cell-based; settings: Homo sapiens, A-427, 2 h, 2 h compound treatment, read-out: pERK (A427 cells) IC50
Method: A-427 (ATCC® HTB-53™) cells were cultured in RPMI 1640 Medium (ThermoFisher Scientific 11875093) containing 10% fetal bovine serum (ThermoFisher Scientific 16000044) and 1× penicillin-streptomycin-glutamine (ThermoFisher Scientific 10378016). Sixteen hours prior to compound treatment, A-427 cells were seeded in 96-well cell culture plates at a density of 25,000 cells/well and incubated at 37° C., 5% CO2. A compound dose-response titration was diluted in growth media, added to appropriate wells of a cell culture plate, and then incubated at 37° C., 5% CO2 for 2 h. Following compound treatment, cells were washed with ice-cold Dulbecco's phosphate-buffered saline, no Ca^2+ or Mg^2+ (ThermoFisher Scientific 14190144), and then lysed in RIPA buffer (50 mM Tris-HCl pH 7.5, 1% Igepal, 0.5% sodium deoxycholate, 150 mM NaCl, and 0.5% sodium dodecyl sulfate) containing protease inhibitors (Roche 4693132001) and phosphatase inhibitors (Roche 4906837001). Phosphorylation of ERK1/2 in compound-treated lysates was assayed using Phospho-ERK1/2 Whole Cell Lysate kits (Meso Scale Discovery K151DWD) according to the manufacturer's protocol. Assay plates were read on a Meso Scale Discovery Sector Imager 6000, and data were analyzed using a 4-parameter logistic model to calculate IC50 values.

[3] = molecular target: GDP-bound KRAS protein (aa 1-169), containing both G12D and C118A amino acid substitutions (Homo sapiens, UniProt P01116, C118A/G12D); assay: KRAS G12D Coupled Nucleotide Exchange Assay; format: biochemical; settings: 2 h compound pre-incubation; SOS-mediated nucleotide exchange, cRAF AlphaScreen readout;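 also: IC50 obtained by fitting the AlphaScreen signal with a four-parameter logistic curve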
Sequence of GDP-bound KRAS protein (aa 1-169), containing both G12D and C118A amino acid substitutions (P01116 1-169 isoform P01116-2 G12D/C118A): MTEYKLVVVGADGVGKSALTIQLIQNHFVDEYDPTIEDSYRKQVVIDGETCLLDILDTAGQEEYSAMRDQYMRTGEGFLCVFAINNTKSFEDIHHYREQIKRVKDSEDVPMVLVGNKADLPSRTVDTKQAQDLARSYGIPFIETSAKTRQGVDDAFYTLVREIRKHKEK

Sequence of His-tagged KRAS G12D protein (P01116 1-188 isoform P01116-2 G12D): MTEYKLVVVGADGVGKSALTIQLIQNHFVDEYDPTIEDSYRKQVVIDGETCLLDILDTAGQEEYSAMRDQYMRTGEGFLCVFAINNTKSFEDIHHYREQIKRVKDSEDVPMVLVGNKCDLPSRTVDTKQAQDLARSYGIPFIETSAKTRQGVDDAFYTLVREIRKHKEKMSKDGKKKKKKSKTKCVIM

| Structure (SMILES) | IC50 [1] [nM] | IC50 [2] [nM] | Avg 2 h Coupled Exchange IC50 [3] [nM] |
| --- | --- | --- | --- |
| Nc1nc2c(-c3c(Cl)cc4c(N5[C@@H]6CC[C@H]5CNC6)nc(OC[C@@]56CCCN5C[C@H](F)C6)nc4c3F)ccc(F)c2s1 [Example 2, 4-(4-((1R,5S)-3,8-diazabicyclo[3.2.1]octan-8-yl)-6-chloro-8-fluoro-2-(((2R,7aS)-2-fluorotetrahydro-1H-pyrrolizin-7a(5H)-yl)methoxy)quinazolin-7-yl)-7-fluorobenzo[d] thiazol-2-amine] | 5 | 23 | 4 |
| CN1C[C@H](F)C[C@H]1COc1nc(N2[C@@H]3CC[C@H]2CNC3)c2cc(Cl)c(-c3ccc(F)c4sc(N)nc34)c(F)c2n1 [Example 3, 4-(4-((1R,5S)-3,8-diazabicyclo[3.2.1]octan-8-yl)-6-chloro-8-fluoro-2-(((2S,4R)-4-fluoro-1-methylpyrrolidin-2-yl)methoxy)quinazolin-7-yl)-7-fluorobenzo[d] thiazol-2-amine] | 6 | 194 | 5 |
| Nc1nc2c(-c3c(Cl)cc4c(N5CCCNC(=O)C5)nc(OC[C@@]56CCCN5C[C@H](F)C6)nc4c3F)ccc(F)c2s1 [Example 4, 4-(7-(2-amino-7-fluorobenzo[d]thiazol-4-yl)-6-chloro-8-fluoro-2-(((2R,7aS)-2-fluorotetrahydro-1H-pyrrolizin-7a(5H)-yl)methoxy)quinazolin-4-yl)-1,4-diazepan-2-one] | 10 | 4900 | 5 |
| CN1CCC[C@H]1COc1nc(N2CC3CC(C2)N3)c2cc(Cl)c(-c3cccc4sc(N)nc34)c(F)c2n1 [Example 5, 4-(4-(3,6-diazabicyclo[3.1.1]heptan-3-yl)-6-chloro-8-fluoro-2-(((S)-1-methylpyrrolidin-2-yl)methoxy)quinazolin-7-yl)benzo[d]thiazol-2-amine] | 10 | 2630 | 5 |
| Nc1nc2c(-c3c(Cl)cc4c(N5C[C@H]6C[C@@H](C5)N6)nc(OC[C@@]56CCCN5C[C@H](F)C6)nc4c3F)ccc(F)c2s1 [Example 6, 4-(4-((1R,5S)-3,6-diazabicyclo[3.1.1]heptan-3-yl)-6-chloro-8-fluoro-2-(((2R,7aS)-2-fluorotetrahydro-1H-pyrrolizin-7a(5H)-yl)methoxy)quinazolin-7-yl)-7-fluorobenzo[d] thiazol-2-amine] | 5 | 364 | 5 |
| CN1C[C@H](F)C[C@H]1COc1nc(N2C[C@H]3C[C@@H](C2)N3)c2cc(Cl)c(-c3ccc(F)c4sc(N)nc34)c(F)c2n1 [Example 7, 4-(4-((1R,5S)-3,6-diazabicyclo[3.1.1]heptan-3-yl)-6-chloro-8-fluoro-2-(((2S,4R)-4-fluoro-1-methylpyrrolidin-2-yl)methoxy)quinazolin-7-yl)-7-fluorobenzo[d] thiazol-2-amine] | 12 | 531 | 6 |
| Nc1nc2c(-c3c(Cl)cc4c(N5[C@@H]6CC[C@H]5CNC6)nc(OCC56CCCN5CC(F)(F)C6)nc4c3F)ccc(F)c2s1 (stereo partly drawn) [Example 9, 4-(4-((1R,5S)-3,8-diazabicyclo[3.2.1]octan-8-yl)-6-chloro-2-((2,2-difluorotetrahydro-1H-pyrrolizin-7a(5H)-yl)methoxy)-8-fluoroquinazolin-7-yl)-7-fluorobenzo[d] thiazol-2-amine] | 7 | 403 | 9 |
| CN1CCC[C@H]1CCOc1nc(N2C[C@H]3C[C@@H](C2)N3)c2cc(Cl)c(-c3ccc(F)c4sc(N)nc34)c(F)c2n1 [Example 11, 4-(4-((1R,5S)-3,6-diazabicyclo[3.1.1]heptan-3-yl)-6-chloro-8-fluoro-2-(2-((S)-1-methylpyrrolidin-2-yl)ethoxy)quinazolin-7-yl)-7-fluorobenzo[d] thiazol-2-amine] | 29 | 8250 | 11 |
| Nc1nc2c(-c3c(Cl)cc4c(N5C[C@H]6C[C@@H](C5)N6)nc(OCC56CCCN5CC(F)(F)C6)nc4c3F)ccc(F)c2s1 (stereo partly drawn) [Example 14, 4-(4-((1R,5S)-3,6-diazabicyclo[3.1.1]heptan-3-yl)-6-chloro-2-((2,2-difluorotetrahydro-1H-pyrrolizin-7a(5H)-yl)methoxy)-8-fluoroquinazolin-7-yl)-7-fluorobenzo[d] thiazol-2-amine] | 12 | 1500 | 14 |
| CN1CCC[C@H]1COc1nc(N2C[C@@H]3CC[C@H]2CN3)c2cc(Cl)c(-c3cccc4sc(N)nc34)c(F)c2n1 [Example 15, 4-(4-((15,4S)-2,5-diazabicyclo[2.2.2]octan-2-yl)-6-chloro-8-fluoro-2-(((S)-1-methylpyrrolidin-2-yl)methoxy)quinazolin-7-yl)benzo[d]thiazol-2-amine] | 21 | 2300 | 14 |
| C[C@H]1CNCCN1c1nc(OC[C@@H]2CCCN2C)nc2c(F)c(-c3cccc4sc(N)nc34)c(Cl)cc12 [Example 16, 4-(6-chloro-8-fluoro-4-((S)-2-methylpiperazin-1-yl)-2-(((S)-1-methylpyrrolidin-2-yl)methoxy)quinazolin-7-yl)benzo[d]thiazol-2-amine] | 100 | 4220 | 23 |
| CN1CCC[C@H]1COc1nc(N2C3CNCC2C3)c2cc(Cl)c(-c3cccc4sc(N)nc34)c(F)c2n1 [Example 18, 4-(4-(3,6-diazabicyclo[3.1.1]heptan-6-yl)-6-chloro-8-fluoro-2-(((S)-1-methylpyrrolidin-2-yl)methoxy)quinazolin-7-yl)benzo[d]thiazol-2-amine] | 158 | > 25000 | 49 |
| CN1CCC[C@H]1COc1nc(N2CCNC3CC32)c2cc(Cl)c(-c3cccc4sc(N)nc34)c(F)c2n1 (stereo partly drawn) [Example 20, 4-(4-(2,5-diazabicyclo[4.1.0]heptan-2-yl)-6-chloro-8-fluoro-2-(((S)-1-methylpyrrolidin-2-yl)methoxy)quinazolin-7-yl)benzo[d]thiazol-2-amine] | 168 | 2510 | 63 |
| Nc1nc2c(-c3c(Cl)cc4c(N5CCCNCC5)nc(OC[C@@]56CCCN5C[C@H](F)C6)nc4c3F)ccc(F)c2s1 [Example 28, 4-(6-chloro-4-(1,4-diazepan-1-yl)-8-fluoro-2-(((2R,7aS)-2-fluorotetrahydro-1H-pyrrolizin-7a(5H)-yl)methoxy)quinazolin-7-yl)-7-fluorobenzo[d] thiazol-2-amine] | 8 | 2300 | 3 |
| Nc1nc2c(-c3c(Cl)cc4c(N5CC6CCC(C5)NC6)nc(OC[C@@]56CCCN5C[C@H](F)C6)nc4c3F)ccc(F)c2s1 (stereo partly drawn) [Example 31, 4-(4-(3,6-diazabicyclo[3.2.2]nonan-3-yl)-6-chloro-8-fluoro-2-(((2R,7aS)-2-fluorotetrahydro-1H-pyrrolizin-7a(5H)-yl)methoxy)quinazolin-7-yl)-7-fluorobenzo[d] thiazol-2-amine] | 6 | 1020 | 5 |
| Nc1nc2c(-c3c(Cl)cc4c(N5CC6CC5CCN6)nc(OC[C@@]56CCCN5C[C@H](F)C6)nc4c3F)ccc(F)c2s1 (stereo partly drawn) [Example 34, 4-(4-(2,6-diazabicyclo[3.2.1]octan-6-yl)-6-chloro-8-fluoro-2-(((2R,7aS)-2-fluorotetrahydro-1H-pyrrolizin-7a(5H)-yl)methoxy)quinazolin-7-yl)-7-fluorobenzo[d] thiazol-2-amine] | 11 | 3100 | 4 |
| CN1CCC[C@H]1COc1nc(N2CCCNCCC2)c2cc(Cl)c(-c3cccc4sc(N)nc34)c(F)c2n1 [Example 35, 4-(6-chloro-4-(1,5-diazocan-1-yl)-8-fluoro-2-(((S)-1-methylpyrrolidin-2-yl)methoxy)quinazolin-7-yl)benzo[d]thiazol-2-amine] | 336 | > 10000 | 65 |
| Nc1nc2c(-c3c(Cl)cc4c(N5C[C@@H]6CC[C@H]5CN6)nc(OC[C@@]56CCCN5C[C@H](F)C6)nc4c3F)ccc(F)c2s1 [Example 38, 4-(4-((15,4S)-2,5-diazabicyclo[2.2.2]octan-2-yl)-6-chloro-8-fluoro-2-(((2R,7aS)-2-fluorotetrahydro-1H-pyrrolizin-7a(5H)-yl)methoxy)quinazolin-7-yl)-7-fluorobenzo[d] thiazol-2-amine] | 6 | 1090 | 13 |
